HELM strings list units from the 5' end as sugar, base in round brackets, then linkage (d deoxyribose, r ribose, m 2'-O-methyl, p phosphodiester). Strings are as the collection lists them; they lack the last nucleoside at the 3' end of the tested compound. [moe] = 2'-O-(2-methoxyethyl) (MOE); [sp] = phosphorothioate linkage; [m5C] = 5-methylcytosine
These substances were tested against SMN2 (assay: mouse, dose not given). Conditions: ASO.
In the case of “RNA1{[moe](A)[sp].[moe](G)[sp].[moe](A)[sp].[moe](T)[sp].[moe](T)[sp].[moe]([m5C])[sp].[moe](A)[sp].[moe]([m5C])[sp].[moe](T)[sp].[moe](T)[sp].[moe](T)[sp].[moe]([m5C])[sp].[moe](A)[sp].[moe](T)[sp].[moe](A)[sp].[moe](A)[sp].[moe](T)[sp].[moe](G)[sp].[moe]([m5C])}$$$$ (last 3' nucleoside missing)”, the 3 h FOB score is reported as 3.5 score 0-7. Substance “RNA1{[moe](A)[sp].[moe](T)[sp].[moe](T)[sp].[moe]([m5C])[sp].[moe](A)[sp].[moe]([m5C])[sp].[moe](T)[sp].[moe](T)[sp].[moe](T)[sp].[moe]([m5C])[sp].[moe](A)[sp].[moe](T)[sp].[moe](A)[sp].[moe](A)[sp].[moe](T)[sp].[moe](G)[sp].[moe]([m5C])[sp].[moe](T)[sp].[moe](G)}$$$$ (last 3' nucleoside missing)” has a 3 h FOB score of 4 score 0-7. With “RNA1{[moe](A)[sp].[moe](T)[sp].[moe](T)[sp].[moe]([m5C])[sp].[moe](A)[sp].[moe]([m5C])[sp].[moe](T)[sp].[moe](T)[sp].[moe](T)[sp].[moe]([m5C])[sp].[moe](A)[sp].[moe](T)[sp].[moe](A)[sp].[moe](A)[sp].[moe](T)[sp].[moe](G)[sp].[moe]([m5C])[sp].[moe](T)}$$$$ (last 3' nucleoside missing)” the 3 h FOB score was 3.5 score 0-7. “RNA1{[moe](A)[sp].[moe](T)[sp].[moe](T)[sp].[moe]([m5C])[sp].[moe](A)[sp].[moe]([m5C])[sp].[moe](T)[sp].[moe](T)[sp].[moe](T)[sp].[moe]([m5C])[sp].[moe](A)[sp].[moe](T)[sp].[moe](A)[sp].[moe](A)[sp].[moe](T)[sp].[moe](G)[sp].[moe]([m5C])p.[moe](T)[sp].[moe](G)}$$$$ (last 3' nucleoside missing)” showed a 3 h FOB score of 4 score 0-7. “RNA1{[moe](A)[sp].[moe](T)[sp].[moe](T)[sp].[moe]([m5C])[sp].[moe](A)[sp].[moe]([m5C])[sp].[moe](T)[sp].[moe](T)[sp].[moe](T)[sp].[moe]([m5C])[sp].[moe](A)[sp].[moe](T)[sp].[moe](A)[sp].[moe](A)[sp].[moe](T)[sp].[moe](G)p.[moe]([m5C])p.[moe](T)[sp].[moe](G)}$$$$ (last 3' nucleoside missing)” gave a 3 h FOB score of 3 score 0-7. “RNA1{[moe](A)[sp].[moe](T)[sp].[moe](T)[sp].[moe]([m5C])[sp].[moe](A)[sp].[moe]([m5C])[sp].[moe](T)[sp].[moe](T)[sp].[moe](T)[sp].[moe]([m5C])[sp].[moe](A)[sp].[moe](T)[sp].[moe](A)[sp].[moe](A)[sp].[moe](T)p.[moe](G)[sp].[moe]([m5C])p.[moe](T)[sp].[moe](G)}$$$$ (last 3' nucleoside missing)” was tested, and the 3 h FOB score was 2 score 0-7. “RNA1{[moe](A)[sp].[moe](T)[sp].[moe](T)[sp].[moe]([m5C])[sp].[moe](A)[sp].[moe]([m5C])[sp].[moe](T)[sp].[moe](T)[sp].[moe](T)[sp].[moe]([m5C])p.[moe](A)[sp].[moe](T)[sp].[moe](A)[sp].[moe](A)[sp].[moe](T)[sp].[moe](G)[sp].[moe]([m5C])[sp].[moe](T)[sp].[moe](G)}$$$$ (last 3' nucleoside missing)” gave a 3 h FOB score of 4 score 0-7. For “RNA1{[moe](A)[sp].[moe](T)[sp].[moe](T)[sp].[moe]([m5C])[sp].[moe](A)[sp].[moe]([m5C])[sp].[moe](T)[sp].[moe](T)[sp].[moe](T)[sp].[moe]([m5C])p.[moe](A)[sp].[moe](T)[sp].[moe](A)[sp].[moe](A)[sp].[moe](T)[sp].[moe](G)[sp].[moe]([m5C])p.[moe](T)[sp].[moe](G)}$$$$ (last 3' nucleoside missing)”, the 3 h FOB score was 2.75 score 0-7. For “RNA1{[moe](A)[sp].[moe](T)[sp].[moe](T)[sp].[moe]([m5C])[sp].[moe](A)[sp].[moe]([m5C])[sp].[moe](T)[sp].[moe](T)[sp].[moe](T)p.[moe]([m5C])p.[moe](A)[sp].[moe](T)[sp].[moe](A)[sp].[moe](A)[sp].[moe](T)[sp].[moe](G)[sp].[moe]([m5C])[sp].[moe](T)[sp].[moe](G)}$$$$ (last 3' nucleoside missing)”, the 3 h FOB score was 4 score 0-7. In the case of “RNA1{[moe](A)[sp].[moe](T)p.[moe](T)[sp].[moe]([m5C])[sp].[moe](A)[sp].[moe]([m5C])[sp].[moe](T)[sp].[moe](T)[sp].[moe](T)[sp].[moe]([m5C])[sp].[moe](A)[sp].[moe](T)[sp].[moe](A)[sp].[moe](A)[sp].[moe](T)[sp].[moe](G)[sp].[moe]([m5C])[sp].[moe](T)[sp].[moe](G)}$$$$ (last 3' nucleoside missing)”, the 3 h FOB score is reported as 4 score 0-7. In the case of “RNA1{[moe](A)[sp].[moe](T)p.[moe](T)[sp].[moe]([m5C])[sp].[moe](A)[sp].[moe]([m5C])[sp].[moe](T)[sp].[moe](T)[sp].[moe](T)[sp].[moe]([m5C])[sp].[moe](A)[sp].[moe](T)[sp].[moe](A)[sp].[moe](A)[sp].[moe](T)[sp].[moe](G)[sp].[moe]([m5C])p.[moe](T)[sp].[moe](G)}$$$$ (last 3' nucleoside missing)”, the 3 h FOB score is reported as 2 score 0-7. “RNA1{[moe](A)[sp].[moe](T)p.[moe](T)[sp].[moe]([m5C])[sp].[moe](A)[sp].[moe]([m5C])[sp].[moe](T)[sp].[moe](T)[sp].[moe](T)[sp].[moe]([m5C])p.[moe](A)[sp].[moe](T)[sp].[moe](A)[sp].[moe](A)[sp].[moe](T)[sp].[moe](G)[sp].[moe]([m5C])[sp].[moe](T)[sp].[moe](G)}$$$$ (last 3' nucleoside missing)” gave a 3 h FOB score of 3.25 score 0-7. In the case of “RNA1{[moe](A)[sp].[moe](T)p.[moe](T)[sp].[moe]([m5C])p.[moe](A)[sp].[moe]([m5C])[sp].[moe](T)[sp].[moe](T)[sp].[moe](T)[sp].[moe]([m5C])[sp].[moe](A)[sp].[moe](T)[sp].[moe](A)[sp].[moe](A)[sp].[moe](T)[sp].[moe](G)[sp].[moe]([m5C])[sp].[moe](T)[sp].[moe](G)}$$$$ (last 3' nucleoside missing)”, the 3 h FOB score is reported as 3.5 score 0-7. Work on “RNA1{[moe](A)[sp].[moe](T)p.[moe](T)p.[moe]([m5C])[sp].[moe](A)[sp].[moe]([m5C])[sp].[moe](T)[sp].[moe](T)[sp].[moe](T)[sp].[moe]([m5C])[sp].[moe](A)[sp].[moe](T)[sp].[moe](A)[sp].[moe](A)[sp].[moe](T)[sp].[moe](G)[sp].[moe]([m5C])[sp].[moe](T)[sp].[moe](G)}$$$$ (last 3' nucleoside missing)” yielded a 3 h FOB score of 3.25 score 0-7. In the case of “RNA1{[moe](A)[sp].[moe]([m5C])[sp].[moe](T)[sp].[moe](T)[sp].[moe](T)[sp].[moe]([m5C])[sp].[moe](A)[sp].[moe](T)[sp].[moe](A)[sp].[moe](A)[sp].[moe](T)[sp].[moe](G)[sp].[moe]([m5C])[sp].[moe](T)[sp].[moe](G)[sp].[moe](G)[sp].[moe]([m5C])[sp].[moe](A)}$$$$ (last 3' nucleoside missing)”, the 3 h FOB score is reported as 0 score 0-7. “RNA1{[moe](A)[sp].[moe]([m5C])[sp].[moe](T)[sp].[moe](T)[sp].[moe](T)[sp].[moe]([m5C])[sp].[moe](A)[sp].[moe](T)[sp].[moe](A)[sp].[moe](A)[sp].[moe](T)[sp].[moe](G)[sp].[moe]([m5C])[sp].[moe](T)[sp].[moe](G)[sp].[moe](G)}$$$$ (last 3' nucleoside missing)” gave a 3 h FOB score of 1.12 score 0-7. “RNA1{[moe](A)[sp].[moe]([m5C])[sp].[moe](T)[sp].[moe](T)[sp].[moe](T)[sp].[moe]([m5C])[sp].[moe](A)[sp].[moe](T)[sp].[moe](A)[sp].[moe](A)[sp].[moe](T)[sp].[moe](G)[sp].[moe]([m5C])[sp].[moe](T)[sp].[moe](G)}$$$$ (last 3' nucleoside missing)” gave a 3 h FOB score of 3.75 score 0-7. “RNA1{[moe](A)[sp].[moe]([m5C])[sp].[moe](T)[sp].[moe](T)[sp].[moe](T)[sp].[moe]([m5C])[sp].[moe](A)[sp].[moe](T)[sp].[moe](A)[sp].[moe](A)[sp].[moe](T)p.[moe](G)p.[moe]([m5C])p.[moe](T)p.[moe](G)[sp].[moe](G)}$$$$ (last 3' nucleoside missing)” was tested, and the 3 h FOB score was 0 score 0-7. Work on “RNA1{[moe](A)[sp].[moe]([m5C])[sp].[moe](T)[sp].[moe](T)[sp].[moe](T)[sp].[moe]([m5C])[sp].[moe](A)[sp].[moe](T)[sp].[moe](A)p.[moe](A)p.[moe](T)p.[moe](G)p.[moe]([m5C])[sp].[moe](T)[sp].[moe](G)[sp].[moe](G)}$$$$ (last 3' nucleoside missing)” yielded a 3 h FOB score of 0 score 0-7. For “RNA1{[moe](A)[sp].[moe]([m5C])[sp].[moe](T)[sp].[moe](T)[sp].[moe](T)[sp].[moe]([m5C])[sp].[moe](A)[sp].[moe](T)p.[moe](A)p.[moe](A)p.[moe](T)[sp].[moe](G)[sp].[moe]([m5C])[sp].[moe](T)[sp].[moe](G)[sp].[moe](G)}$$$$ (last 3' nucleoside missing)”, the 3 h FOB score was 1 score 0-7. Work on “RNA1{[moe](A)[sp].[moe]([m5C])[sp].[moe](T)[sp].[moe](T)[sp].[moe](T)[sp].[moe]([m5C])[sp].[moe](A)p.[moe](T)p.[moe](A)p.[moe](A)p.[moe](T)[sp].[moe](G)[sp].[moe]([m5C])[sp].[moe](T)[sp].[moe](G)[sp].[moe](G)}$$$$ (last 3' nucleoside missing)” yielded a 3 h FOB score of 0.25 score 0-7. For “RNA1{[moe](A)[sp].[moe]([m5C])[sp].[moe](T)[sp].[moe](T)[sp].[moe](T)[sp].[moe]([m5C])[sp].[moe](A)p.[moe](T)p.[moe](A)p.[moe](A)p.[moe](T)p.[moe](G)[sp].[moe]([m5C])[sp].[moe](T)[sp].[moe](G)[sp].[moe](G)}$$$$ (last 3' nucleoside missing)”, the 3 h FOB score was 0 score 0-7. For “RNA1{[moe](A)[sp].[moe]([m5C])[sp].[moe](T)[sp].[moe](T)[sp].[moe](T)[sp].[moe]([m5C])p.[moe](A)p.[moe](T)p.[moe](A)p.[moe](A)p.[moe](T)p.[moe](G)[sp].[moe]([m5C])[sp].[moe](T)[sp].[moe](G)[sp].[moe](G)}$$$$ (last 3' nucleoside missing)”, the 3 h FOB score was 0 score 0-7.

Reference: the OligoGym collection
